PMC4434089 (Biotechnology, Biotechnological Equipment, 2014)
Where two headings read alike, the source gives them in different places. Marks after values point to notes of the source that are not given here.

Assays:
[1] = tested on: Aβ; settings: cited from earlier work
Source text: According to a model developed by Petkova et al.,[81] the 12-21 and 30-40 regions of the Aβ peptide form the β-she ...

[2] = tested on: Aβ; settings: SPR, cited from earlier work
Source text: This was further supported by a recent SPR-based Aβ study that determined a ka of 0.01 complexes per second for Aβ association following first-order kinetics, whilst the kd wa ...

[3] = tested on: amylin; test: NTA of amylin aggregation, alone or with amylin derivatives; type: biochemical, human
Procedure: NTA measurements were performed with a NanoSight LM20 instrument (NanoSight, United Kingdom) equipped with a 640 nm laser and a temperature controlled sample chamber. […] The sample temperature was maintained at 37 °C for the entire duration of the experiment. These experimental conditions were similar to that used for a previously reported cytotoxicity experiment,[73] thus allowing correlation of results obtained from the two techniques. […] Once again, samples were maintained at 37 °C and 60 s video footage were recorded every 10 min for the first hour and then at 24 h. All videos were captured with the single shutter and gain modes. Analysis was performed using NanoSight NTA version 2.2 software with a viscosity setting of 0.70.

[4] = tested on: amylin-mediated cytotoxicity; design: method as in PMID 20093026; settings: cited from earlier work
[5] = tested on: full length amylin; design: method as in 2 sources, one per row (each row's own in cited_ref): ref 58 = [58]; PMID 14565847; doi:10.1042/BJ20030852; Jaikaran E Nilsson MR Clark A Biochem J. 2004 377 709 716 14565847 10.1042/BJ20030852 PMC1223903 ||| ref 68, 93 = [68]; PMID 12054816; doi:10.1016/S0022-2836(02)00164-X; Scrocchi LA Chen Y Waschuk S Wang F Cheung S Darabie AA McLaurin J Fraser PE J Mol Biol. 2002 318 697 706 12054816 10.1016/S0022-2836(02)00164-X || [93]; PMID 12648568; doi:10.1016/s1047-8477(02)00630-5; Scrocchi LA Ha K Chen Y Wu L Wang F Fraser PE J Struct Biol. 2003 141 218 227 http://dx.doi.org/10.1016/s1047-8477(02)00630-5 12648568 10.1016/s1047-8477(02)00630-5; settings: cited from earlier work
[6] = tested on: sensor chip-bound biotinylated amylin; design: method as in PMID 14565847; settings: insulin over sensor chip-bound biotinylated amylin; cited from earlier work

Q: Which results are given for “Aβ1–40: amyloid beta; SPR-derived kinetics were generated using the 1–40 form of Aβ”?
A: aggregation rate compared with 1–42 form of Aβ [1]: aggregate much more slowly than the 1–42 form of Aβ; Aβ association rate ([2]; conditions similar to present study): 0.01 complexes per second; Aβ dissociation kd ([2]; global fit, first-order kinetic model): 0.00223 s⁻¹; Aβ dissociation kd ([2]; printed spread ± 1.3 × 10^−4 s^−1): 0.00092 s⁻¹; Aβ dissociation time ([2]; ref 39 (by order of citation)): 7.5 min; Aβ dissociation time ([2]; ref 80 (by order of citation)): 18 min

Q: With NFGAIL [n4] as the substance, how does the “implied effect on fibrillogenesis of amylin” value ([3]; NTA compared with previously published reports) read?
A: increase fibrillogenesis of amylin to an aggregate that is larger than 1000 nm

Q: And the “Concentration of aggregates 100–150 nm, 10 min” value ([3]; NTA, 10 min, 37 °C, amylin 50 μmol L^−1 alone (A) or with 250 μmol L^−1 derivative, 10 mmol L^−1 sodium phosphate, 50 mmol L^−1 NaCl, pH 7.4, duplicate, p < 0.05 less than A: n1, n5, m5)?
A: 3.8 ×10^7 aggregates/mL

Q: What about the “Concentration of aggregates 200–300 nm, 10 min” value ([3]; NTA, 10 min, 37 °C, amylin 50 μmol L^−1 alone (A) or with 250 μmol L^−1 derivative, pH 7.4, duplicate, p < 0.05 less than A: n1, n3, n5, m1, m2, m3, m4, m5) of the same substance?
A: 5.1 ×10^7 aggregates/mL

Q: What about the “Concentration of aggregates 150–200 nm, 10 min” value ([3]; NTA, 10 min, 37 °C, amylin 50 μmol L^−1 alone (A) or with 250 μmol L^−1 derivative, pH 7.4, duplicate, p < 0.05 less than A: n1, n5, m5) of the same substance?
A: 2.3 ×10^7 aggregates/mL

Q: What about the “concentrations of 100–150, […]–200 and 200–300 nm aggregates at 10 min vs amylin only” value ([3]; NTA, 10 min, amylin:derivative 50:250 μmol L^−1, unpaired t-test) of the same substance?
A: not significantly different

Q: What about the “Concentration of aggregates 100–150 nm, 24 h” value ([3]; NTA, 24 h, 37 °C, amylin 50 μmol L^−1 alone (A) or with 250 μmol L^−1 derivative, pH 7.4, duplicate, p < 0.05 less than A: n1, n2, m5, significantly more: m2) of the same substance?
A: 1.7 ×10^7 aggregates/mL

Q: What about the “Concentration of aggregates 200–300 nm, 24 h” value ([3]; NTA, 24 h, 37 °C, amylin 50 μmol L^−1 alone (A) or with 250 μmol L^−1 derivative, pH 7.4, duplicate, p < 0.05 less than A: n1, n2, n3, n4, n5, m5) of the same substance?
A: 1.7* ×10^7 aggregates/mL

Q: What about the “Concentration of aggregates 150–200 nm, 24 h” value ([3]; NTA, 24 h, 37 °C, amylin 50 μmol L^−1 alone (A) or with 250 μmol L^−1 derivative, pH 7.4, duplicate, p < 0.05 less than A: n1, n2, n5, m5) of the same substance?
A: 1.8 ×10^7 aggregates/mL

Q: And the “number of 200–300 nm aggregates at 24 h vs amylin only” value ([3]; NTA, 24 h, amylin:derivative 50:250 μmol L^−1, p < 0.05)?
A: significantly lower than in samples containing amylin only

Q: What about the “reduction of amylin-mediated cytotoxicity” value [4] of the same substance?
A: more than 40%

Q: What about the “fibril formation of full length amylin in presence of derivative” value [5] of the same substance?
A: fibril formation of full length amylin was enhanced

Q: Which results are given for “insulin: insulin, binding to sensor chip-bound biotinylated amylin”?
A: response change during binding to biotinylated amylin [6]: 15 RUs; effect on fibril formation [5]: inhibit fibril formation
